One experiment deals with HCT116 cells. Briefly: Antiproliferation assay, Cell Titer Glo, 72 hours. Format: cell-based. The protocol: HCT116 cells were plated in 384-well plates at 750 cells/well in 50 ul fresh media (McCoy's 5A+10% FBS+1% Penn/Strep) and treated with 0.1 μl candidate compounds in four-fold dilution series using the Janus pinner. Cells were incubated with compounds for 72 hours in 37° C. 5% CO2. Anti-proliferative effects of these compounds were assessed 72 hours after compound addition using Cell Titer Glo (Promega cat #G7571) as described in product manual by luminescence measurements using an Envision platereader. All proliferation assays were performed in biological quadruplicate. IC50 values were determined using a non-linear regression curve fit in GraphPad Prism 6.

The target in another experiment is Cdk14/CycY (Homo sapiens (Human), UniProt O94921). In words: Lanthascreen Eu kinase binding assay for Cdk14/CycY with 30 minute pre-incubation. The following applies: 30 minute pre-incubation of kinase with compound; read-out: IC50 CDK14 binding by Lanthascreen. The procedure: Lanthascreen Eu kinase binding assays were conducted for Cdk14/CycY largely as performed in the commercial assay service by Life Technologies, but included a 30 minute pre-incubation step of the kinase with candidate compounds to facilitate covalent bond formation.
(In general: Time-resolved FRET reads energy transfer from a long-lived donor to a nearby acceptor.)

Each structure is given as a SMILES string. Like-named read-outs stand apart in the source and are kept apart here. Some results are limits rather than exact numbers.

Cdk14/CycY, sequence (O94921 whole entry): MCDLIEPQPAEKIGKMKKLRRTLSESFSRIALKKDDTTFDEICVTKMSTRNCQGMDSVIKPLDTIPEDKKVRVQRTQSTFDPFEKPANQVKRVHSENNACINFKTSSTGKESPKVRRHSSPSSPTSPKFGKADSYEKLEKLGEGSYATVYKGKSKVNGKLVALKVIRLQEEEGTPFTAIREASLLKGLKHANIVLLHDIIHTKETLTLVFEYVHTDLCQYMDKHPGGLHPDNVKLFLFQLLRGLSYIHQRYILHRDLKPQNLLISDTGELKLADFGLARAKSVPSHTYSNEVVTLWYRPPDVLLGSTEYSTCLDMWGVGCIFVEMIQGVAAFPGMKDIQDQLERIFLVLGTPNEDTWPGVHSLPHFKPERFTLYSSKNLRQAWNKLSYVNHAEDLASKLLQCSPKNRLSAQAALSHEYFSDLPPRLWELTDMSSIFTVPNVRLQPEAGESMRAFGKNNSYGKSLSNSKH
Cdk14/CycY, sequence (Q8ND76 whole entry partner): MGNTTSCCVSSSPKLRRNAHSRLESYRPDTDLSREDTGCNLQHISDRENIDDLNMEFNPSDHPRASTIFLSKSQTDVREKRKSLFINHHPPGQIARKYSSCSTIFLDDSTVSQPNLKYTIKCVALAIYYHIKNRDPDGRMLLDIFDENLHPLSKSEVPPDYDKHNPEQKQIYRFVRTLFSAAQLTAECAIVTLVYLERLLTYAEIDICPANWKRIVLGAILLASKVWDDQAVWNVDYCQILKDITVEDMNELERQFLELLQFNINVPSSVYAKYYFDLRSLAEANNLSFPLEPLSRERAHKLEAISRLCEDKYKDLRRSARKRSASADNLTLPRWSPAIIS

With `C=CC(=O)Nc1cccc(N2CCC(NC(=O)c3n[nH]cc3NC(=O)c3c(Cl)cccc3Cl)C2)c1` (stereo in doubt) [FMF-05-086-1, (S)—N-(1-(3-acrylamidophenyl)pyrrolidin-3-yl)-4-(2,6-dichlorobenzamido)-1H-pyrazole-3-carboxamide], the IC50 (in general, the concentration at which inhibition is half-maximal) stood at 826 nM with HCT116 cells and 1100 nM on Cdk14/CycY.
Take `C=CC(=O)N1CCC(NC(=O)c2n[nH]cc2NC(=O)c2c(Cl)cccc2Cl)CC1` [FMF-03-177-1, N-(1-acryloylpiperidin-4-yl)-4-(2,6-dichlorobenzamido)-1H-pyrazole-3-carboxamide]: the IC50 was found to be 341 nM in the experiment on HCT116 cells (Homo sapiens, HCT-116, 72 h) and 401 nM at Cdk14/CycY.
For `CN(C)C/C=C/C(=O)N1CCC(NC(=O)c2n[nH]cc2NC(=O)c2c(Cl)cccc2Cl)CC1` [FMF-03-177-2, (E)-4-(2,6-dichlorobenzamido)-N-(1-(4-(dimethylamino)but-2-enoyl)piperidin-4-yl)-1H-pyrazole-3-carboxamide], in that order: 1060 nM and 208 nM.
For `C=CC(=O)Nc1ccc(NC(=O)c2n[nH]cc2NC(=O)c2c(Cl)cccc2Cl)cc1` [FMF-03-182-1, N-(4-acrylamidophenyl)-4-(2,6-dichlorobenzamido)-1H-pyrazole-3-carboxamide], in that order: 17 nM and more than 1000 nM.
Taken in the same sequence, the figures for `CN(C)C/C=C/C(=O)Nc1ccc(NC(=O)c2n[nH]cc2NC(=O)c2c(Cl)cccc2Cl)cc1` [FMF-03-182-2, (E)-4-(2,6-dichlorobenzamido)-N-(4-(4-(dimethylamino)but-2-enamido)phenyl)-1H-pyrazole-3-carboxamide] were 395 nM and 82 nM.
In the case of `C=CC(=O)N1CCC[C@@H](NC(=O)c2n[nH]cc2NC(=O)c2c(Cl)cccc2Cl)C1` [FMF-03-183-1, (R)—N-(1-acryloylpiperidin-3-yl)-4-(2,6-dichlorobenzamido)-1H-pyrazole-3-carboxamide], the IC50 in the experiment with HCT116 cells (Homo sapiens, HCT-116, 72 h) is 39 nM; at Cdk14/CycY, 569 nM.
`CN(C)C/C=C/C(=O)N1CCC[C@@H](NC(=O)c2n[nH]cc2NC(=O)c2c(Cl)cccc2Cl)C1` [FMF-03-183-2, (R,E)-4-(2,6-dichlorobenzamido)-N-(1-(4-(dimethylamino)but-2-enoyl)piperidin-3-yl)-1H-pyrazole-3-carboxamide]: the IC50 in the experiment with HCT116 cells (Homo sapiens, HCT-116, 72 h) is 157 nM; on Cdk14/CycY, 148 nM.
For `C=CC(=O)N1CCC[C@H](NC(=O)c2n[nH]cc2NC(=O)c2c(Cl)cccc2Cl)C1` [FMF-03-184-1, (S)—N-(1-acryloylpiperidin-3-yl)-4-(2,6-dichlorobenzamido)-1H-pyrazole-3-carboxamide], in that order: 737 nM and 479 nM.
For `CN(C)C/C=C/C(=O)N1CCC[C@H](NC(=O)c2n[nH]cc2NC(=O)c2c(Cl)cccc2Cl)C1` [FMF-03-184-2, (S,E)-4-(2,6-dichlorobenzamido)-N-(1-(4-(dimethylamino)but-2-enoyl)piperidin-3-yl)-1H-pyrazole-3-carboxamide], in that order: 1340 nM and 976 nM.
Taken in the same sequence, the figures for `C=CC(=O)Nc1ccc(C(=O)N2CCC(NC(=O)c3n[nH]cc3NC(=O)c3c(Cl)cccc3Cl)CC2)cc1` [FMF-03-186-1, N-(1-(4-acrylamidobenzoyl)piperidin-4-yl)-4-(2,6-dichlorobenzamido)-1H-pyrazole-3-carboxamide] were 42 nM and 126 nM.
Take `CN(C)C/C=C/C(=O)Nc1ccc(C(=O)N2CCC(NC(=O)c3n[nH]cc3NC(=O)c3c(Cl)cccc3Cl)CC2)cc1` [FMF-03-187-1, (E)-4-(2,6-dichlorobenzamido)-N-(1-(4-(4-(dimethylamino)but-2-enamido)benzoyl)piperidin-4-yl)-1H-pyrazole-3-carboxamide]: the IC50 is 71 nM in the experiment with HCT116 cells (Homo sapiens, HCT-116, 72 h) and 82 nM at Cdk14/CycY.
As for `C=CC(=O)Nc1cccc(NC(=O)c2n[nH]cc2NC(=O)c2c(Cl)cccc2Cl)c1` [FMF-03-188-1, N-(3-acrylamidophenyl)-4-(2,6-dichlorobenzamido)-1H-pyrazole-3-carboxamide], the IC50 with HCT116 cells (Homo sapiens, HCT-116, 72 h) is 169 nM; on Cdk14/CycY, more than 1000 nM.
Regarding `CN(C)C/C=C/C(=O)Nc1cccc(NC(=O)c2n[nH]cc2NC(=O)c2c(Cl)cccc2Cl)c1` [FMF-03-188-2, (E)-4-(2,6-dichlorobenzamido)-N-(3-(4-(dimethylamino)but-2-enamido)phenyl)-1H-pyrazole-3-carboxamide], the IC50 in the experiment with HCT116 cells (Homo sapiens, HCT-116, 72 h) was 723 nM; at Cdk14/CycY, 88 nM.
Consider `CN(C)C/C=C/C(=O)Nc1cccc(C(=O)N2CCC(NC(=O)c3n[nH]cc3NC(=O)c3c(Cl)cccc3Cl)CC2)c1` [FMF-03-196-2, (E)-4-(2,6-dichlorobenzamido)-N-(1-(3-(4-(dimethylamino)but-2-enamido)benzoyl)piperidin-4-yl)-1H-pyrazole-3-carboxamide], for which the IC50 worked out at 485 nM with HCT116 cells (Homo sapiens, HCT-116, 72 h) and 77 nM at Cdk14/CycY.
Take `C=CC(=O)Nc1cccc(CN2CCC(NC(=O)c3n[nH]cc3NC(=O)c3c(Cl)cccc3Cl)CC2)c1` [FMF-03-200-1, N-(1-(3-acrylamidobenzyl)piperidin-4-yl)-4-(2,6-dichlorobenzamido)-1H-pyrazole-3-carboxamide]: the IC50 with HCT116 cells (Homo sapiens, HCT-116, 72 h) stood at 0.9 nM.
Still for that read-out and setting: the value for `CN(C)C/C=C/C(=O)Nc1ccc(S(=O)(=O)N2CCC[C@@H](NC(=O)c3n[nH]cc3NC(=O)c3c(Cl)cccc3Cl)C2)cc1` [FMF-04-056-2, (R,E)-4-(2,6-dichlorobenzamido)-N-(1-((4-(4-(dimethylamino)but-2-enamido)phenyl)sulfonyl)piperidin-3-yl)-1H-pyrazole-3-carboxamide] was more than 10000 nM.
Turning to `C=CC(=O)Nc1cccc(C(=O)Nc2ccc(NC(=O)c3n[nH]cc3NC(=O)c3c(Cl)cccc3Cl)c(C)c2)c1` [FMF-04-085-1, N-(4-(3-acrylamidobenzamido)-2-methylphenyl)-4-(2,6-dichlorobenzamido)-1H-pyrazole-3-carboxamide], the IC50 on Cdk14/CycY was more than 1000 nM.
Regarding `C=CC(=O)Nc1cccc(S(=O)(=O)N2CCC(NC(=O)c3n[nH]cc3NC(=O)c3c(Cl)cccc3OC)CC2)c1` [FMF-04-107-1, N-(1-((3-acrylamidophenyl)sulfonyl)piperidin-4-yl)-4-(2-chloro-6-methoxybenzamido)-1H-pyrazole-3-carboxamide], half-maximal inhibition in the experiment with HCT116 cells (Homo sapiens, HCT-116, 72 h) (IC50) required 115 nM.
Turning to `CN(/C=C/C(=O)Nc1cccc(CN2CCC(NC(=O)c3n[nH]cc3NC(=O)c3c(Cl)cccc3Cl)CC2)c1)CCCCC1C[C@@H]2NC(=O)N[C@@H]2S1` (stereo partly shown) [FMF-04-131-1], at Cdk14/CycY, the IC50 turned out to be 49 nM.
As to `CN(C/C=C/C(=O)Nc1cccc(S(=O)(=O)N2CCC(NC(=O)c3n[nH]cc3NC(=O)c3c(Cl)cccc3Cl)CC2)c1)CCC(=O)NCCOCCOCCOCCNC(=O)CCCC[C@@H]1SC[C@@H]2NC(=O)N[C@@H]21` [FMF-04-153-1, 4-(2,6-dichlorobenzamido)-N-(1-((3-((E)-5-methyl-8,22-dioxo-26-((3aS,4S,6aR)-2-oxohexahydro-1H-thieno[3,4-d]imidazol-4-yl)-12,15,18-trioxa-5,9,21-triazahexacos-2-enamido)phenyl)sulfonyl)piperidin-4-yl)-1H-pyrazole-3-carboxamide], the half-inhibitory concentration (IC50) on Cdk14/CycY was determined as 8 nM.
On to `CN(C)C/C=C/C(=O)Nc1cccc(CN2CCC(NC(=O)c3n[nH]cc3NC(=O)c3c(Cl)cc(Cl)cc3Cl)CC2)c1` [FMF-04-158-2, (E)-N-(1-(3-(4-(dimethylamino)but-2-enamido)benzyl)piperidin-4-yl)-4-(2,4,6-trichlorobenzamido)-1H-pyrazole-3-carboxamide], for which the IC50 in the experiment on HCT116 cells (Homo sapiens, HCT-116, 72 h) worked out at 156 nM.
`C=CC(=O)Nc1cccc(S(=O)(=O)N2CCC(NC(=O)c3nn(C)cc3NC(=O)c3c(Cl)cccc3Cl)CC2)c1` [FMF-04-180-1, N-(1-((3-acrylamidophenyl)sulfonyl)piperidin-4-yl)-4-(2,6-dichlorobenzamido)-1-methyl-1H-pyrazole-3-carboxamide] returned an IC50 in the experiment on HCT116 cells (Homo sapiens, HCT-116, 72 h) of 9000 nM.
`CN(C)C/C=C/C(=O)Nc1cccc(S(=O)(=O)N2CCC(NC(=O)c3nn(C)cc3NC(=O)c3c(Cl)cccc3Cl)CC2)c1` [FMF-04-180-2, (E)-4-(2,6-dichlorobenzamido)-N-(1-((3-(4-(dimethylamino)but-2-enamido)phenyl)sulfonyl)piperidin-4-yl)-1-methyl-1H-pyrazole-3-carboxamide] yielded an IC50 in the experiment with HCT116 cells (Homo sapiens, HCT-116, 72 h) of more than 10000 nM.
With `COc1cccc(Cl)c1C(=O)Nc1c[nH]nc1C(=O)NC1CCN(S(=O)(=O)c2cccc(NC(=O)/C=C/CN(C)CCC(=O)NCCOCCOCCOCCNC(=O)CCCCC[C@H]3NC(=O)N[C@H]3C)c2)CC1` [FMF-05-035-1, 4-(2-chloro-6-methoxybenzamido)-N-(1-((3-((E)-5-methyl-27-((4R,5S)—5-methyl-2-oxoimidazolidin-4-yl)-8,22-dioxo-12,15,18-trioxa-5,9,21-triazaheptacos-2-enamido)phenyl)sulfonyl)piperidin-4-yl)-1H-pyrazole-3-carboxamide], the IC50 on Cdk14/CycY stood at 46 nM.
With `CN(C)C/C=C/C(=O)Nc1cccc(CNC(=O)c2n[nH]cc2NC(=O)c2c(Cl)cccc2Cl)c1` [FMF-05-067-2, (E)-4-(2,6-dichlorobenzamido)-N-(3-(4-(dimethylamino)but-2-enamido)benzyl)-1H-pyrazole-3-carboxamide], the 50% inhibitory concentration (IC50) with HCT116 cells (Homo sapiens, HCT-116, 72 h) was more than 10000 nM.
On the same count and under the same terms, the value for `C=CC(=O)Nc1cccc(N2CCC(NC(=O)c3n[nH]cc3NC(=O)c3c(Cl)cccc3Cl)CC2)c1` [FMF-05-085-1, N-(1-(3-acrylamidophenyl)piperidin-4-yl)-4-(2,6-dichlorobenzamido)-1H-pyrazole-3-carboxamide] was 93 nM.

These data come from patent US12187701B2, “Taire family kinase inhibitors and uses thereof” (Dana-Farber Cancer Institute, Inc., priority 2018, dated 2025).
